Laboratory results taken from article PMC5908784, “Extracellular loops 2 and 3 of the calcitonin receptor selectively modify agonist binding and efficacy” (Biochemical Pharmacology, 2018).
Residue numbers refer to the chain shown, from its start. Where no end group is shown, it is not given here.

Tests used:
Experiment in all cases: Homologous whole cell competition binding
Settings in all cases: homologous competition of 125I-sCT(8-32), whole cells, mean ± S.E.M., SEM
hCTR T280A = biological target: T1, hCTR T280A (Homo sapiens, UniProt P30988, T280A)
T1 construct: expressed in transfected cells
T1 sequence (P30988 25-474 T280A): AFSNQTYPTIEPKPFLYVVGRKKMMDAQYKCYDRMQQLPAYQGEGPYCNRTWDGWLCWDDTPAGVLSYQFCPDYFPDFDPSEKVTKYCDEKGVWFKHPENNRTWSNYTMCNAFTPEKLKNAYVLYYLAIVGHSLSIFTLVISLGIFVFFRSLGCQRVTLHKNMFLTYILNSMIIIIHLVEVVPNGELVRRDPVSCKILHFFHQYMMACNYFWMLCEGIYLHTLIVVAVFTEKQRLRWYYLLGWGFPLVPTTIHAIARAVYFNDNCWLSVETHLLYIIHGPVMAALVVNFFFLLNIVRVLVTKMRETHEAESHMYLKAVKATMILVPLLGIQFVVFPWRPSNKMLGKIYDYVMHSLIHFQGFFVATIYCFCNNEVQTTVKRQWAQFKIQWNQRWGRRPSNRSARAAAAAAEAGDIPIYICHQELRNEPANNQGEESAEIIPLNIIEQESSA
Outline: (§1)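 Values are pKi, derived from IC50 of unlabelled sCT(8-32) displacing ^125I-sCT(8-32) (25–100 pM) from whole cells after overnight incubation at 4 °C. Specific binding was scaled between tracer-only total and 1 μM cold-peptide background.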

hCTR Y299A = biological target: T2, hCTR Y299A (Homo sapiens, UniProt P30988, Y299A)
T2 construct: c-Myc (N); expressed in transfected cells
T2 sequence (P30988 25-474 Y299A): T1 sequence (P30988 25-474 T280A) with A256T, Y275A
Outline: as §1

hCTR Y284A = biological target: T3, hCTR Y284A (Homo sapiens, UniProt P30988, Y284A)
T3 construct: expressed in transfected cells
T3 sequence (P30988 25-474 Y284A): T1 sequence (P30988 25-474 T280A) with A256T, Y260A
Outline: as §1

hCTR N365A = biological target: T4, hCTR N365A (Homo sapiens, UniProt P30988, N365A)
T4 construct: c-Myc (N); expressed in transfected cells
T4 sequence (P30988 25-474 N365A): T1 sequence (P30988 25-474 T280A) with A256T, N341A
Outline: as §1

Substance: VLGKLSQELHKLQTYPRTNTGSGTP-NH2 [sCT(8-32)]
- Ki (hCTR T280A): 0.245 nM
- Ki (hCTR Y299A): 0.107 nM
- Ki (hCTR Y284A): 0.141 nM
- Ki (hCTR N365A): 0.234 nM
